Source: patent US20250361217A1, “FATTY ACID COMPOUNDS” (University of Pittsburgh - Of the Commonwealth System of …, priority 2022, published 2025)

What was measured:
[1] = FuFA-CoA detection in liver by mass spectrometry; type: in vivo; conditions: livers of FuFA-treated HFD mice
Method: Liver powder (50 mg) was used and dissolved in plastic Eppendorf with […] of milli-Q purified water and vortexed well. Then, 200 μl of ACN containing 400 nM n-Heptadecanoyl coenzyme A lithium salt as internal standard (C17-CoA standard, NuCheck) was added, vortexed thoroughly, and centrifuged for 4 min at 10000 g at 4° C. For protein precipitation, the supernatant was transferred to a new tube and 20 μl was diluted with 180 μl of ACN/water (4:1 ratio) in clean mass spectrometry vials for analysis of CoA's.
FuFA-CoA in liver and primary hepatocytes were detected with an API 5000™ mass spectrometer after chromatographic separation using a 150×2 mm Luna® 5 μm C8 100 C8 Å LC column (OOF-4040-BO) with 5% solvent B (ACN, 0.1% ammonium) at a flow rate of 0.35 ml/min using a system solvent started in 5% solvent B (ACN, 0.1% ammonium hydroxide) and 95% of solvent A(water+0.1% ammonium hydroxide) for 30 seconds, followed by an increase from 5-65% gradient of solvent B over 6 min, followed by re equilibrate condition. Quantitation of analyte and internal standard peak areas was determined using the Quantitation Wizard in Sciex's Analyst® Software.

liver gene expression = assay: RNA-Sequencing of livers with IPA pathway analysis; type: in vivo, mice
Method: Bioinformatics and Biostatistics Analyses on RNA Sequencing Data Transcriptome sequencing was performed on mice samples from each group with four replicates per condition. Quality control was first performed on the raw sequencing data by tool FastQC. Then low-quality reads and adapter sequences were trimmed out by tool Trimmomatic. After pre-processing, the surviving reads were aligned into mouse reference genome mm10 by STAR aligner. Gene counts per gene per sample were quantified by function—quantMode GeneCounts supported by the STAR aligner. Gene expression normalization was performed by R package DEseq2.
Given the gene expression profile, differential expression analyses were performed based on gene counts by DEseq2 package. Five pairwise comparisons were analyzed: LFD+Veh vs LFD+11D3, HFD+Veh vs HFD+11D3, HFD+Veh vs HFD+11U3, HFD+Veh vs HFD+11U3-2M and LFD+Veh vs HFD+Veh. Differentially expressed genes (DEGs) were defined by FDR=5% and absolute fold-change equal to or greater than 1.5. For the downstream analysis, Ingenuity Pathways Analysis (IPA) was employed to perform pathway enrichment analysis on the DEGs. Significant pathways were defined by FDR=5%. Regulation directions were measured by Z-scores, where a positive Z-score indicates activation of the pathway and a negative Z-score means inhibition, while some pathways show out unknown or mix of regulation directions.

LncRNA GM15441 = assay: Fluorescence RNA in-situ hybridization for GM15441; type: in vivo, mice; conditions: livers of HFD-treated groups
Method: Fluorescence RNA in-situ hybridization was performed on tissue sections using LNA ISH Optimization Kits (Qiagen, #339459) according to manufacturer's instructions. Briefly, the sectioning slides were deparaffinized and digested by proteinase K approach for 15 min at 37° C. U6, scrambled RNA, and GM15441 (LCD0173184) probes were hybridized at final concentration of 1 nM, 40 nM and 40 nM, respectively, followed by stringent washes of serial diluted SSC (Sigma, #S6639-1 L). After 30 min blocking, the slides were incubated with anti-DIG-POD (Roche, #11207733910) at 1:400 dilution for 60 min at RT according to manufacturer's instructions. TSA-plus Cyanine 3 (Akoya Bioscience, #NEL744001KT) substrate was added to the sections and incubated twice (5 min per incubation) to amplify the fluorescence signal. NucBlue Live ReadyProbes Reagent was applied to the slides at last to facilitate cell nuclei staining. Images were acquired on a fluorescent microscope (Leica, DMi8) using the Ocular Advanced Scientific Camera Control software (Digital Optics Limited).

[2] = Energy expenditure and respiratory exchange ratio (FIG. 6D); type: in vivo; conditions: mice after treatment

CCCc1ccc(CCCCCCCCCC(C)(C)C(=O)O)o1 [11U3-2M, 2,2-Dimethyl-11-(5-propylfuran-2-yl)undecanoic acid]
FuFA-CoA conjugate in liver (ratio to C17:0-CoA) [1]: significantly elevated | activated pathways (Ingenuity Pathway Analysis) (liver gene expression; liver RNA-Seq DEGs vs HFD+veh): FA β-oxidation was the most activated pathway | LncRNA GM10804 downregulated (liver gene expression; liver RNA-Seq vs HFD+veh): 5 fold | LncRNA GM15441 increased (liver gene expression; liver RNA-Seq vs HFD+veh): 137 fold | increase in PDK4 gene (liver gene expression; liver RNA-Seq vs HFD+veh): 7 fold | GM15441 in-situ hybridization signal (LncRNA GM15441): only detected in the nucleus of cells from 11U3-2M treated livers | energy expenditure [2]: no change | respiratory exchange ratio [2]: no change
